Data from ChEMBL document CHEMBL3046916, “ROLE OF INTERMEDIARY BIOMARKERS IN DETERMINING THE ANTICANCER EFFICACY OF MARINE COMPOUNDS” (2004).
Activity calls are given as the source filed them. The rule behind the calls is not given here.

Assays:
Format in all cases: functional
MCF7 [1] = experiment: Inhibition of residual DNA repair ability in Homo sapiens (human) MCF7 cells assessed as plaque forming unit at 50 uM followed by irradiated with 100 Jm'-2 of UV after 24 hr by host cell reactivation assay relative to control
MCF7 [2] = experiment: Decrease of p16 protein expression in Homo sapiens (human) MCF7 cells at 50 uM followed by irradiated with UV after 4 hr by Western blot analysis relative to control; set-up: scale not given: the % may be the effect or the level left
MCF7 [3] = experiment: Decrease of p53 protein expression in Homo sapiens (human) MCF7 cells at 50 uM followed by irradiated with UV after 4 hr by Western blot analysis relative to control; set-up: scale not given: the % may be the effect or the level left
MCF7 [4] = experiment: Decrease of p21 protein expression in Homo sapiens (human) MCF7 cells at 50 uM followed by irradiated with UV after 4 hr by Western blot analysis relative to control; set-up: scale not given: the % may be the effect or the level left
MCF7 [5] = experiment: Inhibition of residual DNA repair ability in Homo sapiens (human) MCF7 cells assessed as plaque forming unit at 50 uM followed by irradiated with 50 Jm'-2 of UV after 24 hr by host cell reactivation assay relative to control
MCF7 [6] = experiment: Inhibition of residual DNA repair ability in Homo sapiens (human) MCF7 cells assessed as plaque forming unit at 50 uM followed by irradiated with 200 Jm'-2 of UV after 24 hr by host cell reactivation assay relative to control
MCF7 [7] = experiment: Increase of benzo[alpha]pyrene-DNA adduct formation in Homo sapiens (human) MCF7 cells at 50 uM treated for 24 hr before benzo[alpha]pyrene addition measured after 24 hr by 32P-postlabeling technique relative to control
MCF7 [8] = experiment: Increase of benzo[alpha]pyrene-DNA adduct formation in Homo sapiens (human) MCF7 cells at 100 uM treated for 24 hr before benzo[alpha]pyrene addition measured after 24 hr by 32P-postlabeling technique relative to control

Row | Structure (SMILES) | %PFU (MCF7 [1]) [%] | Activity (MCF7 [2]) [%] | Activity (MCF7 [3]) [%] | Activity (MCF7 [4]) [%] | %PFU (MCF7 [5]) [%] | %PFU (MCF7 [6]) [%] | fold change (FC) (MCF7 [7]) | Activity (MCF7 [7]) | fold change (FC) (MCF7 [8])
1 | O[C@]12C=C(c3nccc4c3[nH]c3ccccc34)[C@@H]3CCN(CCCC/C=C\CC1)C[C@@]31C[C@@H]3/C=C\CCCCN3[C@H]12 [MANZAMINE A] | 15 | 89 | 63 | 80 | 46 | 9 | 2 |  | 
2 | CC1=C2CC/C(C)=C/CC[C@]3(C)O[C@H]3CC/C(C)=C/[C@@H]2OC1=O [SARCOPHINE] | 38 | 96 | 90 | 120 | 69 | 24 |  | inactive | 2
